# Results published in patent US7163960B2, “Treatment and prevention of inflammatory disorders” (Monsanto Technology L.L.C., priority 2002, dated 2007).
# Entries after “also recorded” stand apart in the source; their conditions may differ. Marks after values point to notes of the source that are not given here.
# Key:
# [1] = test system: leukotrienes; details: U.S. Pat. No. 5,158,975; cited from earlier work
# [2] = test system: C-reactive protein; experiment: Clinical study of SDA on down-regulating C-reactive protein; type: in vivo, human; details: Example 3, described in present tense; about 0.75 then 1.5 g/day
# Text: Approximately 35–50 males and post-menopausal female -19–65 years of age, normolipidemic, and with a body mass index (BMI) in the range 20 to 30, are recruited. Exclusion criteria include bleeding disorders, hypertension, inflammatory disorders, active gastrointestinal diseases, chronic use of low dose aspirin, consumption of restaurant or takeaway evening meals more than twice per week, use of dietary supplements rich in n-3 or n-6 fatty acids, habitual consumption of more than 1 fish meal per month, and plasma phospholipid EPA+DHA levels>7.9% of total fatty acids. Subjects are randomly allocated to one of three groups, designated ALA, SDA, and EPA. […]
# C-reactive protein (Hs-CRP) in plasma can be analyzed by use of latex-enhanced immunonephelometric assay on a BN II analyzer (Rifai et al. Clinical efficacy of an automated high-sensitivity C-reactive protein assay. Clin. Chem […];45:2136). […]
# Subjects are weighed at each visit for change in weight during the trial. […] Fatty acids are analyzed between dietary groups in EPA concentration in erythrocyte or plasma phospholipids. The effect of ingestion of EPA, ALA or SDA at 0.75 g/day (weeks 0 to 3) or 1.5 g/day (weeks 3 to 6) is determined with respect to EPA concentration in the phospholipid fractions of erythrocytes and plasma. Effects on DPA concentration in the phospholipid fractions of erythrocytes and plasma are also analyzed.
# [3] = test system: IL-1β; experiment: IL-1β synthesis in LPS-treated whole blood; type: in vivo, human; details: for IL-1β synthesis in LPS-treated whole blood: mean ± SD
# Description: (§1) Following a 3-week run-in period, subjects ingested either ALA, SDA, EPA supplied as ethyl esters in capsules. Intakes were 0.75 g/day for 3 weeks followed by 1.5 g/day for the subsequent 3 weeks.
# (§2) Blood (4 mL) was added to heparinised tubes, bacterial lipopolysaccharide (LPS) was added (200 ng/mL), and the mixture was incubated at 37° C., 5% CO2, for 24 h. Plasma was collected and assayed for prostaglandin E2 (PGE2) by radioimmunoassay (RIA), interleukin-1β (IL-1β) and tumor necrosis factor-α (TNF-α) by ELISA, as described in Mantzioris et al., supra.
# [4] = test system: prostaglandin E2 (PGE2); experiment: PGE2 synthesis in LPS-stimulated whole blood; type: in vivo, human; details: for PGE2 synthesis in LPS-stimulated whole blood: mean ± SD
# Description: as §1, §2
# [5] = Fatty acid analysis of blood cell phospholipids and plasma lipid fractions after ingestion of test fatty acids; type: in vivo, human
# Text: 45 males and post-menopausal female—19–65 years of age, normolipidemic, and with a body mass index (BMI) in the range 20 to 30, were recruited. Exclusion criteria included bleeding disorders, hypertension, inflammatory disorders, active gastrointestinal diseases, chronic use of low dose aspirin, consumption of restaurant or takeaway evening meals more than twice per week, use of dietary supplements rich in n-3 or n-6 fatty acids, habitual consumption of more than 1 fish meal per month, and plasma phospholipid EPA+DHA levels>7.9% of total fatty acids (level achieved in the study group was 4.9±1.0% of total fatty acids).
# as §1
# At each visit, 36 mL of blood was taken by venepuncture after an overnight fast. Blood was aliquoted into various tubes for the following procedures.
# Blood (20 mL) was added to tubes containing 4 mL 4.5% EDTA in water and 4 mL—6% dextran in normal saline, pH 7.0. Erythrocytes were allowed to sediment under gravity at 37° C. for 30 min. The leucocyte-rich plasma was layered onto LYMPHOPREP, density 1.077 (Nycomed Pharma, Oslo) and centrifuged at 110 g for 10 min to separate leucocytes from the platelets, which were removed. The gradient was further centrifuged at 200 g for 20 min to separate the neutrophils from mononuclear cells, which were removed.
# Samples were processed for fatty acid analysis as described in Mantzioris et al., Am. J. Clin. Nutr., 72:42–8 (2000). Plasma, washed platelet and mononuclear cell pellets were stored at −80° C. Erythrocyte pellets were treated fresh with chloroform:isopropanol (2:1) and the lipid extracts stored at 4° C. Plasma, platelet and mononuclear cell pellets were extracted with chloroform:methanol. The cellular and plasma lipid extracts were fractionated by thin-layer chromatography. For the cellular extracts, the phospholipid fraction was retained and for the plasma extracts, the phospholipid, cholesterol ester, and triglyceride fractions were retained. These were transesterified by methanolysis (1% H2SO4 in methanol at 70° C. for 3 h). Fatty acid methyl esters were separated and quantified with a HEWLETT-PACKARD 6890 gas chromatograph equipped with a 50 m capillary column coated with BPX-70 (0.25 μm film thickness; SGE Pty Ltd, Victoria, Australia) (see Mantzioris et al., supra). Fatty acid standards were obtained from NuChek Prep Inc. (Elysian, Minn.) and included stearidonic acid obtained from Sigma Aldrich Pty Ltd. (Castle Hill, NSW, Australia). All organic solvents contained butylated hydroxy anisole (0.005%) as an antioxidant.
# [6] = test system: TNF-α; experiment: TNF-α synthesis in LPS-treated whole blood; type: in vivo, human; details: for TNF-α synthesis in LPS-treated whole blood: mean ± SD
# Description: as §1, §2
# [7] = Week 3 (after 0.75 g/day for 3 weeks)
# [8] = Week 6 (after 1.5 g/day for 3 weeks)
# [9] = Week −3 (start of run-in, before dosing)
compound,measurement,setting,value
"CC/C=C\C/C=C\C/C=C\C/C=C\CCCCC(=O)O [SDA, stearidonic acid]",Effect on biosynthesis of leukotrienes,[1],inhibit biosynthesis of leukotrienes
same,Effect of SDA intake on C-reactive protein,[2],decrease in C-reactive protein
same,Effect on LPS-stimulated IL-1β synthesis,[3]; 0.75 g/day or 1.5 g/day (either dose),significantly decreased
same,IL-1β synthesis in LPS-treated whole blood,[3]; Week 0 (baseline),94.7 ± 29.3^b ng/mL
same,IL-1β synthesis in LPS-treated whole blood,[3]; [7],81.4 ± 21.9^c ng/mL
same,IL-1β synthesis in LPS-treated whole blood,[3]; [8],77.8 ± 26.4^c ng/mL
same,IL-1β synthesis in LPS-treated whole blood,[3]; [9],106.9 ± 33.0^a ng/mL
same,Effect on LPS-stimulated PGE2 synthesis,[4]; 1.5 g/day,no change
same,Effect on LPS-stimulated PGE2 synthesis,"[4]; Visit 3, following ingestion of 0.75 g",statistically significant increases
same,PGE2 synthesis in LPS-stimulated whole blood,[4]; Week 0 (baseline),*4.64 ± 1.09^a ng/mL
same,PGE2 synthesis in LPS-stimulated whole blood,[4]; [7],6.26 ± 2.56^b ng/mL
same,PGE2 synthesis in LPS-stimulated whole blood,[4]; [8],4.61 ± 0.95^a ng/mL
same,PGE2 synthesis in LPS-stimulated whole blood,[4]; [9],3.97 ± 1.48^a ng/mL
same,Effect on EPA concentration in the phospholipid fractions of erythrocytes and plasma,[5]; 0.75 g/day (weeks 0 to 3),significantly increased
same,Effect on DPA concentration in the phospholipid fractions of erythrocytes and plasma,[5]; 1.5 g/day,significantly increased; also recorded: elevated
same,Effect on EPA concentration in the phospholipid fractions of erythrocytes and plasma,[5]; 1.5 g/day (weeks 3 to 6),significantly increased; also recorded: elevated
same,Effect on tissue levels of DHA (FIG. 1),"[5]; erythrocytes and plasma phospholipids, 1.5 g/day",not DHA
same,Efficiency relative to ALA at elevating tissue EPA levels,[5]; in humans,about four times more efficient than ALA
same,Effect on LPS-stimulated TNF synthesis,[6]; 1.5 g/day,statistically significant decreases
same,TNF-α synthesis in LPS-treated whole blood,[6]; Week 0 (baseline),43.7 ± 18.7^a ng/mL
same,TNF-α synthesis in LPS-treated whole blood,[6]; [7],37.7 ± 14.2^ab ng/mL
same,TNF-α synthesis in LPS-treated whole blood,[6]; [8],34.1 ± 12.0^b ng/mL
same,TNF-α synthesis in LPS-treated whole blood,[6]; [9],37.6 ± 14.6^ab ng/mL
